This is an account of results in patent US11135231B2, “Methods and compositions for prevention and treatment of Apicomplexan infections” (Tufts Medical Center, Inc., priority 2016, dated 2021).

Each structure is given as a SMILES string.

One series concerns C. parvum. Kind of series: Neonatal mouse model of C. parvum infection, histological scoring. It counts as in vivo, Cryptosporidium parvum. The following applies: neonatal mice, 2 mg/kg/dose b.i.d. for 4 days, histological score. As for the experimental part:
To determine if tartrolon D/E would be effective in vivo, the purified compound(s) of the invention was tested in a neonatal mouse model of C. parvum infection (Schaefer D A et al. (2000) Infect Immun 68(5):2608-261). Eight-day old neonatal mice were infected with C. parvum oocysts (50 times the ID50) and treated with purified tartrolon D/E (specifically, D1) or vehicle as a starting material for 4 days at 2 mg/kg/dose (b.i.d). At the end of the study period, mice were sacrificed and histological sections of jejunum, ileum, colon and caecum were examined. Infection in each section was scored by an observer blinded as to the sample identity.

Another series deals with Toxoplasma gondii ME49. Kind of series: Bright-Glo luciferase assay of parasite proliferation in HFF cells. It counts as cell-based. To be noted: Toxoplasma gondii, HFF, read-out: EC50 against T. gondii ME49, added 8 h after infection, 24 hours, 3 independent experiments. As to the method: Human foreskin fibroblast (HFF) cells were established in 96-well plates, and then infected with ME49 parasites engineered to express green fluorescent protein and firefly luciferase (2.5 to 5×10^5/well). Eight hours after infection, dilutions of Tartrolon D1 isolated as in Example 3, Tartrolon D2 isolated as in Example 4, or vehicle (DMSO) at equivalent concentrations were added to infected cells and the plates incubated for 24 hours (37° C., 5% CO2). Proliferation of the parasites was then measured using Bright-Glo luciferase assay system (available from Promega). Samples were run in triplicate and three independent biological replicates were conducted. The log 10 [Tartrolon D] versus percent inhibition of parasite proliferation was analyzed using the four parameter variable slope analysis in Graphpad Prism.

For the next series, the system named is Babesia bovis. Kind of series: SYBR green-based growth suppression assay in bovine red blood cells. It counts as cell-based. As to the method:
Purified tartrolon D/E (with starting materials being either D1 or D2) was tested against another apicomplexan pathogen, Babesia bovis, which proliferates in bovine red blood cells. Growth suppression of B. bovis was quantified using a modified SybrGreen-based assay (Molecular Probes, Life Sciences Technology). SYBR green is an asymmetrical cyanine dye that is used as a nucleic acid stain. In this assay, parasite replication in red blood cells is measured directly by the incorporation of SYBR green into parasite DNA. Tartrolon D/E concentrations ranging from 0.001 to 10,000 nM were tested on infected cells and DMSO (vehicle) was run in parallel as a negative control.

The test system of series [1] is three human tumor cell lines. The following applies: cited from earlier work.
For a further series, the system named is P. falciparum strains. As to the kind of experiment: 3H hypoxanthine incorporation assay of P. falciparum strains in human red blood cells. It counts as cell-based, Plasmodium falciparum. As for the experimental part:
The potency of the compounds of the invention against multi-drug resistant P. falciparum strains was tested. Parasites were cultured in 96-well plates in human red blood cells at 0.5% initial parasitemia for 72 hours in the presence of dilutions of tartrolon D/E (specifically, D2 as the starting material in FIG. 11A), purified tartrolon E (FIG. 11C), dihydroartemisinin (DHA, as a positive control in FIG. 11B), or DMSO (as a negative control). Parasites proliferation was then determined by ^3H hypoxanthine incorporation.
Specifically, parasitized red blood cells (pRBCs) were grown in 0.5% Albumax I (Thermo Fisher Scientific). Assays were set up in 96-well plates at 0.5% initial parasitemia and 0.5% hematocrit. Parasites were exposed to various concentrations of Tartrolon D or E and dihydroartemisinin (DHA) for 48 hours and then pulsed with 0.5 microcuries of tritium-labeled hypoxanthine Moravek (MT-700) for another 24 hours. At the end of 72 hours, assay plates were processed through an Inotech cell harvester and collected on Inotech glass fiber filters. Filters were transferred to Omniplate-96 cassettes (Perkin Elmer) and dried overnight at room temperature. About […] of Microscint-O scintillation cocktail (Perkin Elmer) was added to each well. Each well was counted for 2 minutes on a Packard Topcount scintillation counter. The uptake of radiolabeled hypoxanthine by compound-treated pRBCs was compared relative to uptake by DMSO solvent-treated controls. […] The starting material used as the active reagent in FIG. 11C was tartrolon E, purified as follows: extract from the bacterial pellet of the Teredinibacter turnerae T7901 was purified by reversed phase HPLC using diode array detection. A C18 column (Phenomenex CHO-7878, 100×10 mm) was employed with an isocratic mobile phase (85% acetontrile in water, 3.5 mL/min) to yield tartrolon E (4.7 mg, retention time 8 min).

Series [2] deals with Cryptosporidium parvum. As to the kind of experiment: Host cell ATP assay (CellTiter-Glo) of C. parvum-infected Caco2 cells. To be noted: Caco-2, host cell ATP at 48 h post-infection, read-out: EC50 against C. parvum. It counts as cell-based. As to the method:
(§1) The effect of Tartrolon D/E on Cryptosporidium proliferation was evaluated by measuring host cell ATP levels (CellTiter-Glo® Luminescent Cell Viability Assay, Promega). Caco2 cells, having been infected with 2×10^5 C. parvum oocysts for 7 hours, were treated with dilutions of tartrolon D/E or DMSO (control) and cellular ATP levels were measured at the 48-hour time point post-infection.

Series [3] deals with Cryptosporidium parvum. As to the kind of experiment: Morphology of C. parvum parasites after treatment (immunofluorescence). It counts as cell-based. The following applies: 100 nM, 9 hours (FIG. 6B). The text has this:
Insets (upper right in each image) are enlargements of boxed regions (dashes). Red: Rabbit α gp15 detected with Alexafluor 594-conjugated goat anti-rabbit IgG secondary antibody; blue: DAPI; scale=20 μm; insets=5 μm.
(§2) The morphology of treated parasites (FIG. 6B) was similar to that seen with T. gondii, in which the vacuole contained intact nuclei but no intact merozoites.

The test system of the next series is Caco2 cell. Kind of series: Caco2 cell viability. The following applies: concentrations up to 500 nM. It counts as cell-based. As for the experimental part: as §1, §2
Series [4] relates to Bovine Turbinate (BT) cells (ATCC #CRL-1390). Kind of series: Toxicity for mammalian cells, CellTiter Glo cell viability assay. It counts as cell-based. The following applies: 24 hours. As to the method:
Toxicity of the compounds of the invention for mammalian cells was determined. Bovine Turbinate (BT) cells (ATCC #CRL-1390) are a primary cell line (not a transformed cancer cell line) and were used to provide a preliminary evaluation of the toxicity of tartrolon D/E for mammalian cells. Briefly, BT cells were cultured in the presence of increasing starting concentrations of Tartrolon D/E for 24 hours. Cell proliferation was measured using CellTiter Glo Cell Viability Assay (Promega) and the data was analyzed with GraphPad Prism.

In another series the test system is Plasmodium berghei. Kind of series: Plasmodium berghei-luciferase infection in mice, IVIS imaging. The class given is in vivo. To be noted: IVIS image FIG. 14B, 1 of the 4 control mice. As to the method:
Mice were infected with Plasmodium berghei expressing luciferase. 48 hours post infection mice were treated with tartrolon D/E (specifically, D2) initially solubilized in 2% methylcellulose and 0.5% Tween80 by intraperitoneal injection for 5 days, once per day. Control mice were treated with vehicle alone. Seven days after infection, mice were given luciferase substrate (150 mg/kg D-luciferin Potassium salt in PBS (Goldbio)) and imaged in an IVIS Lumina II to quantify level of infection.

The subject of a further series is Toxoplasma gondii. Kind of series: Immunofluorescence assay (anti-SAG1) of T. gondii-infected HFF cells. It counts as cell-based. To be noted: T. gondii in HFF cells, FIG. 4B/4C. As to the method:
FIGS. 2B and 2C show results for experiments that were conducted as for FIG. 2A, except that 24 hours after addition of the fractions, the infected HFF cells were processed for immunofluorescence assays. Briefly, infected and treated HFF cells that had been grown on coverslips in 6-well plates were fixed with methanol and parasites were detected using antibody to the SAG1 T. gondii surface antigen that was then detected with a red-fluorescence tagged secondary antibody. Host nuclei were stained with blue fluorescent marker DAPI (4′,6-diamidino-2-phenylindole). Host nuclei were clearly visible (blue) in all cell populations in both FIGS. 2B and 2C. Consistent with the trypan blue results, extensive red fluorescence was visible in cells treated with the control (DMSO) in FIG. 2C, meaning these cells were highly infected with the parasites.

Series [5] concerns apicomplexan parasites tested. As to the kind of experiment: Summary of in vitro EC50 against the apicomplexan parasites tested. To be noted: general range. The class given is cell-based. From the text: For therapeutic purposes, the compounds of the invention may be formulated into a pharmaceutical composition, by mixing a therapeutically effective amount of the compound(s) of the invention with a pharmaceutically acceptable excipient, carrier, or diluent, and optionally in combination with one or more additional active agents, e.g., a second anti-parasitic agent. […] With an EC50 value as low as the picomolar to nanomolar level provides further confidence that the active ingredients, once administered in vivo, would likely achieve the expected anti-parasitic effects. According to an aspect of the present invention, tartrolon D and/or tartrolon E can be used as a therapeutic for treatment or prevention of human and animal diseases caused by various protozoan parasites.

The test system of the next series is HFF cell. As to the kind of experiment: HFF cell viability by MTS assay. It counts as cell-based, human. The following applies: at the concentrations tested. As for the experimental part: (§3) Readouts of host cell viability were used to quantify the dose-response of tartrolon D/E against T. gondii. Human foreskin fibroblast (HFF) cells, after having been infected by T. gondii for 24 hours, were treated with dilutions of tartrolon D/E that have been purified as in Example 2, or DMSO (control) for 72 hours. Host cell viability was then measured by MTS assay (CellTiter 96® AQueous One Solution Cell Proliferation Assay, Promega). The effective concentration at which 50% of the host cells survived (EC50) was about 5 nM (FIG. 4A).
At the concentrations tested, tartrolon D/E had no effect on HFF cell viability as measured by MTS assay, indicating likely safety for in vivo administration. […] The aberration in the parasite morphology, stark when compared to untreated cell infection shown in the left columns of FIGS. 4B and 4C, provides direct evidence of irreversible inhibition and killing of the target parasite by compounds of the invention.

A further series relates to T. gondii. As to the kind of experiment: MTS host cell viability readout of T. gondii-infected HFF cells. It counts as cell-based. The following applies: Toxoplasma gondii, read-out: effective concentration at which 50% of the host cells survived (EC50). As for the experimental part: as §3

Turning to `C[C@@H]1C(=O)C[C@@H](O)CC/C=C/C=C\CC[C@H](C)OC(=O)C(O)[C@]2(O)O[C@@H](CC[C@H]2C)[C@H](C)C(=O)C[C@@H](O)CC/C=C/C=C\CC[C@H](C)OC(=O)C(O)[C@]2(O)O[C@H]1CC[C@H]2C` (stereo partly drawn) [Tartrolon D1, tartrolon D], the inhibition of infection result with C. parvum is given as “about 50%”. For the same molecule, the EC50 in the series on Toxoplasma gondii ME49 was determined as 3.4 nM; in the series on Babesia bovis (Babesia bovis, Erythrocyte, SYBR green fluorescence, read-out: EC50 against B. bovis), 11.2 nM. Also, the “concentration at which parasites did not incorporate any more fluorescence than uninfected red blood cells” value with Babesia bovis was “more than 20 nM”.

As for `C[C@@H]1C(=O)C[C@@H](O)CC/C=C/C=C\CC[C@H](C)OC(=O)C(O)[C@]2(O)O[C@@H](CC[C@H]2C)[C@H](C)C(=O)C[C@@H](O)CC/C=C/C=C\CC[C@H](C)OC(=O)C(O)[C@]2(O)O[C@H]1CC[C@H]2C` (stereo partly drawn) [Tartrolon D, tartrolon D], the cytotoxic activity entry in series [1] is recorded as “strong cytotoxic activity”. Besides, the EC50 in the series with P. falciparum strains (Plasmodium falciparum, 3D7, Erythrocyte, parasite line 3D7) came to 0.11 nM; in the series with P. falciparum strains (Plasmodium falciparum, DD2, Erythrocyte, parasite line Dd2), 0.28 nM; in the series on P. falciparum strains (Plasmodium falciparum, Erythrocyte, parasite line 7G8), 0.18 nM; in the series on P. falciparum strains (Plasmodium falciparum, Erythrocyte, parasite line 2012 Indian Isolate (Goa)), 0.26 nM; with P. falciparum strains (Plasmodium falciparum, Erythrocyte, parasite line D6), 0.14 nM; with P. falciparum strains (Plasmodium falciparum, Erythrocyte, parasite line V1S), 0.31 nM. The EC50 is 0.13 nM in the series on P. falciparum strains (Plasmodium falciparum, HB3, Erythrocyte, parasite line HB3); 0.2 nM in the series with P. falciparum strains (Plasmodium falciparum, NF54, Erythrocyte, parasite line NF54); 0.16 nM in the series on P. falciparum strains (Plasmodium falciparum, TM90C2A, Erythrocyte, parasite line TM90C2A); 0.19 nM in the series with P. falciparum strains (parasite line 3D7); approximately 12 nM in the series on Cryptosporidium parvum [2]. For the same molecule, the “morphology of treated parasites” value with Cryptosporidium parvum [3] is on record as “most parasites did not progress past the single cell stage”.

On to `C[C@@H]1C(=O)C[C@@H](O)CC/C=C/C=C\CC[C@H](C)OC(=O)C(O)[C@]2(O)O[C@@H](CC[C@H]2C)[C@H](C)C(=O)C[C@@H](O)CC/C=C/C=C\CC[C@H](C)OC(=O)C(O)[C@]2(O)O[C@H]1CC[C@H]2C` (stereo partly drawn) [Tartrolon D/E], for which, in the series on Caco2 cell, the “effect on Caco2 cell viability” value is “no effect”. Also, the “toxic dose at which 50% of the cells were killed” value in series [4] turned out to be 1.14 µM. Besides, in the series on Plasmodium berghei, the “treated mice with significant areas with no parasites” value is reported as 4 of the 5. In the series with Toxoplasma gondii, the parasite morphology result is reported as “aberrant morphology”. Also, the EC50 in series [5] was 0.1 to 16 nM; in the series on T. gondii it was approximately 5 nM. In addition, the “effect on HFF cell viability” value in the series with HFF cell is on record as “no effect”.
